Measured values taken from ChEMBL document CHEMBL5042472, “Design, Synthesis, and Biological Evaluation of a Novel Photocaged PI3K Inhibitor toward Precise Cancer Treatment” (J Med Chem, 2021).
Activity calls are given as the source filed them. The rule behind the calls is not given here.

How the values were obtained:
[1] = test system: BGC-823; assay: Antiproliferative activity against human BGC-823 cells assessed as reduction in cell viability irradiated with 365 nm of UV for 5 mins and incubated in dark for 96 hrs by MTT assay; format: functional, cell-based; settings: BGC-823, light or radiation study
[2] = test system: HCT-116; assay: Inhibition of colony formation in human HCT-116 cells irradiated with 365 nm of UV light for 5 min at 100 nM incubated for 24 hrs by crystal violet staining based assay; format: functional, cell-based
[3] = Stability in rat liver microsomes assessed as half life at 1 uM in presence of NADPH by LC-MS/MS analysis; format: ADME, Microsome
[4] = test system: HGC-27; assay: Inhibition of PI3K/AKT signalling pathway in human HGC-27 cells assessed as downregulation of SRP6 phosphorylation at 100 nM incubated for 24 hrs under dark condition by Western blot; format: cell-based
[5] = test system: AGS; assay: Antiproliferative activity against human AGS cells assessed as reduction in cell viability irradiated with 365 nm of UV for 5 mins and incubated in dark for 96 hrs by MTT assay; format: functional, cell-based; settings: light or radiation study
[6] = Stability in rat plasma assessed as half life at 1 uM measured upto 120 min by LC-MS/MS analysis; format: ADME, cell-free
[7] = test system: HGC-27; assay: Antiproliferative activity against human HGC-27 cells assessed as reduction in cell viability incubated in dark for 96 hrs by MTT assay; format: functional, cell-based; settings: HGC-27, 96 h
[8] = species: Homo sapiens; assay: Anticancer activity against KOES-007 patient derived stomach cancer organoid assessed as inhibition of cell growth irradiated with 365 nm of UV light for 5 mins and incubated for 120 hrs; format: functional, tissue-based
[9] = test system: HCT-116; assay: Antiproliferative activity against human HCT-116 cells assessed as reduction in cell viability irradiated with 365 nm of UV for 5 mins and incubated in dark for 96 hrs by MTT assay; format: functional, cell-based; settings: HCT-116, light or radiation study
[10] = test system: HCT-116; assay: Inhibition of PI3K/AKT signalling pathway in human HCT-116 cells assessed as downregulation of […] phosphorylation at 100 nM incubated for 24 hrs under dark condition by Western blot; format: cell-based
[11] = test system: AGS; assay: Antiproliferative activity against human AGS cells assessed as reduction in cell viability incubated in dark for 96 hrs by MTT assay; format: functional, cell-based
[12] = test system: HGC-27; assay: Inhibition of PI3K/AKT signalling pathway in human HGC-27 cells assessed as downregulation of SRP6 phosphorylation at 100 nM irradiated with 365 nm UV light for 5 mins and incubated for 24 hrs by Western blot; format: cell-based
[13] = test system: HGC-27; assay: Induction of cell cycle arrest in human HGC-27 cells assessed as accumulation at G0/G1 phase at 100 nM irradiated with 365 nm UV light for 5 mins and incubated for 24 hrs by flow cytometry; format: functional, cell-based
[14] = biological target: Phosphatidylinositol 4,5-bisphosphate 3-kinase catalytic subunit alpha isoform (Homo sapiens, UniProt P42336); assay: Inhibition of PI3K alpha (unknown origin) using PIP2 as substrate incubated in dark at room temperature for 1 hr in presence of ATP by ADP-Glo luminescent assay
Phosphatidylinositol 4,5-bisphosphate 3-kinase catalytic subunit alpha isoform, sequence (P42336 whole entry, canonical isoform): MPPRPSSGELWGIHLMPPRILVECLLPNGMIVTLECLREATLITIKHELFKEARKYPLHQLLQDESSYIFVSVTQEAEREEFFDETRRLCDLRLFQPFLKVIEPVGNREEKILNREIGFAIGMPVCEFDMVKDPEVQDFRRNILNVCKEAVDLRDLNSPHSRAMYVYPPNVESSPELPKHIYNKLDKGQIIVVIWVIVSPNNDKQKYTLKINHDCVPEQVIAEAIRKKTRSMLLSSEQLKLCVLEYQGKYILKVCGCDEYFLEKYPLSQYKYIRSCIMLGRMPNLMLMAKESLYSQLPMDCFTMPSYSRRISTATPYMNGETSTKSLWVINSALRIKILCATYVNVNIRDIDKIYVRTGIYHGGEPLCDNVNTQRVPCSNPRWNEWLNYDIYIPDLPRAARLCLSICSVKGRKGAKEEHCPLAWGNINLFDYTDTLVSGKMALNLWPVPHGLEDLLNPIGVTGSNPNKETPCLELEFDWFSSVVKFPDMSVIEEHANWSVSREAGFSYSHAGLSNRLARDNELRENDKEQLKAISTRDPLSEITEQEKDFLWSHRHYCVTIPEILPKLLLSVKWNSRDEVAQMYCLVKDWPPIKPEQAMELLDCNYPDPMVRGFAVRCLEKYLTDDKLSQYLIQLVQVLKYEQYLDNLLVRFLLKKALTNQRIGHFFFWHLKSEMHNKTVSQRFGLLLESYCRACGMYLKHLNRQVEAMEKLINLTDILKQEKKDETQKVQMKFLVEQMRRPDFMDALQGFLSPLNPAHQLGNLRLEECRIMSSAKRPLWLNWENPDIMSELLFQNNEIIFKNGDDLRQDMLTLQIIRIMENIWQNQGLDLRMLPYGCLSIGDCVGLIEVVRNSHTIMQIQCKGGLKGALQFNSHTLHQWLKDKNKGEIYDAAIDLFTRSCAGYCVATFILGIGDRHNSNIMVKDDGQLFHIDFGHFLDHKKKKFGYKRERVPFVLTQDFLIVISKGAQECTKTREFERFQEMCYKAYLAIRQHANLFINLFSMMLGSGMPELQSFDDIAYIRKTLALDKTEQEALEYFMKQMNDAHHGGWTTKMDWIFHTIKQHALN

[15] = test system: HGC-27; assay: Inhibition of PI3K/AKT signalling pathway in human HGC-27 cells assessed as downregulation of AKT phosphorylation at […] residue at 100 nM irradiated with 365 nm UV light for 5 mins and incubated for 24 hrs by Western blot; format: cell-based
[16] = Stability of the compound in dark condition at room temperature after 6 month; format: physicochemical; settings: 4380 h; time 6 months
[17] = test system: HCT-116; assay: Inhibition of PI3K/AKT signalling pathway in human HCT-116 cells assessed as downregulation of […] phosphorylation at 100 nM irradiated with 365 nm UV light for 5 mins and incubated for 24 hrs by Western blot; format: cell-based
[18] = test system: MG-63; assay: Antiproliferative activity against human MG-63 cells assessed as reduction in cell viability irradiated with 365 nm of UV for 5 mins and incubated in dark for 96 hrs by MTT assay; format: functional, cell-based; settings: MG-63, light or radiation study
[19] = biological target: Phosphatidylinositol 4,5-bisphosphate 3-kinase catalytic subunit gamma isoform (Homo sapiens, UniProt P48736); assay: Inhibition of PI3K gamma (unknown origin) using PIP2 as substrate incubated in dark at room temperature for 1 hr in presence of ATP by ADP-Glo luminescent assay
Phosphatidylinositol 4,5-bisphosphate 3-kinase catalytic subunit gamma isoform, sequence (P48736 whole entry, canonical isoform): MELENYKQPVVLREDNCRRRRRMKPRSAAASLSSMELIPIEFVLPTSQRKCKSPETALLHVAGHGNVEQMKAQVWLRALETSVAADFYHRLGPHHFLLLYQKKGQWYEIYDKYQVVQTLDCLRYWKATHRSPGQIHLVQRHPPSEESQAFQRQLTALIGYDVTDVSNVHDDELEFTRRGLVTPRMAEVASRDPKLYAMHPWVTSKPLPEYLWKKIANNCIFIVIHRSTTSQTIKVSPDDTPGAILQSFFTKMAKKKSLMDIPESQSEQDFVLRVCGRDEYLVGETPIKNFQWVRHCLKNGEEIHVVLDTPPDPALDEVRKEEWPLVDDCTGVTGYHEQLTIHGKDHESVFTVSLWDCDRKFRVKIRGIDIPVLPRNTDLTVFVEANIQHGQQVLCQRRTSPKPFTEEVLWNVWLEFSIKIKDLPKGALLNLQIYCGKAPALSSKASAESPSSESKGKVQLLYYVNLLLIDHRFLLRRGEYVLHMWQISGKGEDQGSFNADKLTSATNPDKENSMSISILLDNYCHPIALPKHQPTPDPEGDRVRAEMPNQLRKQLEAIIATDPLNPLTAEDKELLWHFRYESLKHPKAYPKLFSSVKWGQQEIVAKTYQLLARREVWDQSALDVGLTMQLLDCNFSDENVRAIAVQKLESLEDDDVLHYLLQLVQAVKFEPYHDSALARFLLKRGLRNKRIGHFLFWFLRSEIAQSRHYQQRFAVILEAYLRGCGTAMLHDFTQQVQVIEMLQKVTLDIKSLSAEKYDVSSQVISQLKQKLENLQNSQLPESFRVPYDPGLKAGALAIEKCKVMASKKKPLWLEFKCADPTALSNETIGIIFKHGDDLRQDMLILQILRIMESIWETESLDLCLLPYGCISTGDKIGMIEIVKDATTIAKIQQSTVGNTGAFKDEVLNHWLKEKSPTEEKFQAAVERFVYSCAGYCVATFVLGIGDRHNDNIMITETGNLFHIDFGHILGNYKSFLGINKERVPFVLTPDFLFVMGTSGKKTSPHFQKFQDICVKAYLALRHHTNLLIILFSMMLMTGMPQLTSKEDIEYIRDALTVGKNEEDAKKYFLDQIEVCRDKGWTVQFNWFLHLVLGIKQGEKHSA

[20] = Retention time of the compound by HPLC analysis; format: physicochemical
[21] = biological target: T1, Phosphatidylinositol 4,5-bisphosphate 3-kinase catalytic subunit delta isoform (Homo sapiens, UniProt O00329); assay: Inhibition of PI3K delta (unknown origin) using PIP2 as substrate incubated in dark at room temperature for 1 hr in presence of ATP by ADP-Glo luminescent assay
T1 sequence (O00329 whole entry): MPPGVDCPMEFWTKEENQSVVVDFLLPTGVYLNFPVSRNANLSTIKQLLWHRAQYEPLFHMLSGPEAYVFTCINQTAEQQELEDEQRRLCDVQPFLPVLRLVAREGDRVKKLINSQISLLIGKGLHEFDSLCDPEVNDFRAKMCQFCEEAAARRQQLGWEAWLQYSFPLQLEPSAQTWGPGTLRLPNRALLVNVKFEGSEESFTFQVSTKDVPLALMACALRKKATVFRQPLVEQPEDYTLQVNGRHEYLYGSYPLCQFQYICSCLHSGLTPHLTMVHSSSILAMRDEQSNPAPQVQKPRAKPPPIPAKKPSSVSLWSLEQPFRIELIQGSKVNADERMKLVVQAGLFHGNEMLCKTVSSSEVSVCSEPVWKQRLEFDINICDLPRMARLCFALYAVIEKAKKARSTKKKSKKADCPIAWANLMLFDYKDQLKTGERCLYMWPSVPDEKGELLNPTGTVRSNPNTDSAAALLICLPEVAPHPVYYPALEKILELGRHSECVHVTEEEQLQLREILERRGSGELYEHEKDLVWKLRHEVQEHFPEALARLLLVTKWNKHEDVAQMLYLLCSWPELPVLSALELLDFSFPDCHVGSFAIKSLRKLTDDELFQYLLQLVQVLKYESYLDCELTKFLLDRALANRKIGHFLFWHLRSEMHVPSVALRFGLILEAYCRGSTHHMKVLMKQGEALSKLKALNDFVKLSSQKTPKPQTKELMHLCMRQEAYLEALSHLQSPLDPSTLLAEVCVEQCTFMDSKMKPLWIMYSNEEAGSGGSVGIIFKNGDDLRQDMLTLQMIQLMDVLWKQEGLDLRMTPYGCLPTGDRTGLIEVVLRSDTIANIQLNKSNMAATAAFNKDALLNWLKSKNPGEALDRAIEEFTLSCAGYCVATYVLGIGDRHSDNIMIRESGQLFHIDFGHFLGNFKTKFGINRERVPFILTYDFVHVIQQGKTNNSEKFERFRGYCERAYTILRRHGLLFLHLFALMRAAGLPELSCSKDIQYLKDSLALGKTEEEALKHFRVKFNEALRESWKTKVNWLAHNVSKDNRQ

[22] = test system: HGC-27; assay: Inhibition of colony formation in human HGC-27 cells at 100 nM incubated for 24 hrs by crystal violet staining based assay; format: functional, cell-based
[23] = test system: MG-63; assay: Antiproliferative activity against human MG-63 cells assessed as reduction in cell viability incubated in dark for 96 hrs by MTT assay; format: functional, cell-based; settings: MG-63, 96 h
[24] = test system: HCT-116; assay: Induction of apoptosis in human HCT-116 cells assessed as increase in number of cells in sub-G0 phase at 100 nM incubated for 24 hrs by flow cytometry; format: functional, cell-based
[25] = test system: HGC-27; assay: Antiproliferative activity against human HGC-27 cells assessed as reduction in cell viability irradiated with 365 nm of UV for 5 mins and incubated in dark for 96 hrs by MTT assay; format: functional, cell-based; settings: HGC-27, light or radiation study
[26] = species: Homo sapiens; assay: Anticancer activity against KOCO-096 patient derived colon cancer organoid assessed as inhibition of cell growth irradiated with 365 nm of UV light for 2 mins and incubated for 120 hrs; format: functional, tissue-based

COc1cc(CN(c2cc(-c3cc(OC4CCOCC4)c4ncnc(C)c4c3)cnc2OC)S(=O)(=O)c2ccc(F)cc2F)c([N+](=O)[O-])cc1OC
IC50 [1]: 103 nM
inhibition [2]: Active
half-life at 1 µM [3]: 1.82 min
inhibition [4]: inactive
IC50 [5]: 70.3 nM
half-life at 1 µM [6]: > 120 min
IC50 [7]: 248 nM
Activity [8]: Dose-Dependent Effect
IC50 [9]: 81 nM
inhibition [10]: inactive
IC50 [11]: 924 nM
inhibition [12]: Active
Activity [13]: Active
IC50 [14]: 343 nM
inhibition [15]: Active
Stability [16]: Stable
inhibition [17]: Active
IC50 [18]: 142 nM
IC50 [19]: 4470 nM
Retention_time [20]: 4.7 min
IC50 [21]: 3010 nM
inhibition [22]: inactive
IC50 [23]: 1840 nM
inhibition [24]: Active
IC50 [25]: 13.8 nM
Activity [26]: Active
